Legend:
[1] = tested on: 3C human cell system; test: BioMAP Diversity PLUS primary human cell phenotypic profiling, 3C system; format: cell-based; conditions: 6.7 and/or 20 μM, 24 to 72 hours
From the text: (§1) It was hypothesized that, given the compounds' associations with lower risks of comorbidities of aging in long-lived dolphins, the compounds of the embodiments would have relevant activities in human cell systems mimicking conditions related to the quality of aging and longevity. To test this hypothesis, 12 primary human cell systems from the BioMAP Diversity PLUS® panel (Eurofins/DiscoverX, Fremont, Calif.) mimicking inflammation and fibrosis relevant to chronic inflammation, liver disease, respiratory disease, skin disease, wound healing, scarring, allergies, asthma, autoimmune disease, cancer, and cardiovascular disease, were exposed to pure, synthetic forms of the selected compounds at one or two concentrations (6.7 and/or 20 μM). Quantitative measurements of 148 biomarker activities across this broad panel, along with comparative analysis of biological activities from known bioactive agents, were used to predict and compare the efficacy and function of the targeted compounds across these systems compared to non-treated control systems. Activated BioMAP systems were incubated with the targeted compounds for 24 to 72 hours. Biomarker activities were considered significant when biomarker values were outside of the 95th percentile significance envelope and had at least one concentration with an effect size >20% (log 10 ratio) >0.1. FIG. 2 describes the different cell systems. […]

[2] = tested on: BE3C human cell system; test: BioMAP Diversity PLUS primary human cell phenotypic profiling, BE3C system; format: cell-based; conditions: 6.7 and/or 20 μM, 24 to 72 hours
From the text: (§2) It was hypothesized that, given the compounds' associations with lower risks of comorbidities of aging in long-lived dolphins, the compounds of the embodiments would have relevant activities in human cell systems mimicking conditions related to the quality of aging and longevity. To test this hypothesis, 12 primary human cell systems from the BioMAP Diversity PLUS® panel (Eurofins/DiscoverX, Fremont, Calif.) mimicking inflammation and fibrosis relevant to chronic inflammation, liver disease, respiratory disease, skin disease, wound healing, scarring, allergies, asthma, autoimmune disease, cancer, and cardiovascular disease, were exposed to pure, synthetic forms of the selected compounds at one or two concentrations (6.7 and/or 20 μM). Quantitative measurements of 148 biomarker activities across this broad panel, along with comparative analysis of biological activities from known bioactive agents, were used to predict and compare the efficacy and function of the targeted compounds across these systems compared to non-treated control systems. Activated BioMAP systems were incubated with the targeted compounds for 24 to 72 hours. Biomarker activities were considered significant when biomarker values were outside of the 95th percentile significance envelope and had at least one concentration with an effect size >20% (log 10 ratio) >0.1. FIG. 2 describes the different cell systems.
(§3) The summary is of relevant diseases and tissues treated with selected compounds at 6.7 to 20 μM, based on primary human cell phenotypic profiling.

[3] = tested on: BT human cell system; test: BioMAP Diversity PLUS primary human cell phenotypic profiling, BT system; format: cell-based; conditions: 6.7 and/or 20 μM, 24 to 72 hours
From the text: as §2, §3

[4] = tested on: CASM3C human cell system; test: BioMAP Diversity PLUS primary human cell phenotypic profiling, CASM3C system; format: cell-based; conditions: coronary artery smooth muscle cell proliferation, 6.7 and/or 20 μM, 24 to 72 hours
From the text: as §1

[5] = tested on: LPS human cell system; test: BioMAP Diversity PLUS primary human cell phenotypic profiling, LPS system; format: cell-based; conditions: 6.7 and/or 20 μM, 24 to 72 hours
From the text: as §2, §3

[6] = tested on: /Mphg human cell system; test: BioMAP Diversity PLUS primary human cell phenotypic profiling, /Mphg system; format: cell-based; conditions: 6.7 and/or 20 μM, 24 to 72 hours
From the text: as §2, §3

[7] = tested on: SAg human cell system; test: BioMAP Diversity PLUS primary human cell phenotypic profiling, SAg system; format: cell-based; conditions: 6.7 and/or 20 μM, 24 to 72 hours; for Proliferation, Log10 ratio of treated vs. non-treated systems: T cell proliferation
From the text: as §2, §3

[8] = tested on: BF4T human cell system; test: BioMAP Diversity PLUS primary human cell phenotypic profiling, BF4T system; format: cell-based; conditions: 6.7 and/or 20 μM, 24 to 72 hours
From the text: as §1

[9] = tested on: KF3CT human cell system; test: BioMAP Diversity PLUS primary human cell phenotypic profiling, KF3CT system; format: cell-based; conditions: 6.7 and/or 20 μM, 24 to 72 hours
From the text: as §2, §3

[10] = tested on: 4H human cell system; test: BioMAP Diversity PLUS primary human cell phenotypic profiling, 4H system; format: cell-based; conditions: 6.7 and/or 20 μM, 24 to 72 hours
From the text: as §2, §3

[11] = tested on: MyoF human cell system; test: BioMAP Diversity PLUS primary human cell phenotypic profiling, MyoF system; format: cell-based; conditions: 6.7 and/or 20 μM, 24 to 72 hours
From the text: as §2, §3

[12] = room temperature; cited from earlier work
[13] = tested on: HDF3CGF human cell system; test: BioMAP Diversity PLUS primary human cell phenotypic profiling, HDF3CGF system; format: cell-based; conditions: 6.7 and/or 20 μM, 24 to 72 hours
From the text: as §2, §3

N[C@@H](CCC(=O)N[C@@H](Cc1c[nH]cn1)C(=O)O)C(=O)O [gamma-glutamylhistidine]
Tissue factor, Log10 ratio of treated vs. non-treated systems [1]: −0.12 | MMP-1, Log10 ratio of treated vs. non-treated systems [2]: −0.10 | TNF-α (sTNF-α), Log10 ratio of treated vs. non-treated systems [3]: −0.18 | Proliferation, Log10 ratio of treated vs. non-treated systems [4]: 0.11 | CD40, Log10 ratio of treated vs. non-treated systems [5]: −0.11 | E-selectin, Log10 ratio of treated vs. non-treated systems [5]: −0.11 | CXCL8, Log10 ratio of treated vs. non-treated systems [6]: −0.15

O[C@H]1[C@H](O)[C@@H](O)[C@H](O)[C@@H](O)[C@H]1O [myo-inositol]
CXCL8, Log10 ratio of treated vs. non-treated systems [2]: −0.26 | CXCL10, Log10 ratio of treated vs. non-treated systems [2]: −0.58 | CXCL11, Log10 ratio of treated vs. non-treated systems [2]: −0.28 | EGFR, Log10 ratio of treated vs. non-treated systems [2]: −0.11 | HLA-DR, Log10 ratio of treated vs. non-treated systems [2]: −0.10 | ICAM-1, Log10 ratio of treated vs. non-treated systems [2]: −0.11 | MMP-9, Log10 ratio of treated vs. non-treated systems [2]: −0.25 | PAI-1, Log10 ratio of treated vs. non-treated systems [2]: −0.18 | Proliferation, Log10 ratio of treated vs. non-treated systems [7]: −0.20 | IL-17A (sIL-17A), Log10 ratio of treated vs. non-treated systems [3]: −0.12 | TNF-α (sTNF-α), Log10 ratio of treated vs. non-treated systems [3]: −0.21 | sIL-2, Log10 ratio of treated vs. non-treated systems [3]: −0.16 | sIL-17F, Log10 ratio of treated vs. non-treated systems [3]: −0.15 | sIgG, Log10 ratio of treated vs. non-treated systems [3]: −0.62 | Eotaxin-3, Log10 ratio of treated vs. non-treated systems [8]: −0.19 | MCP-1, Log10 ratio of treated vs. non-treated systems [8]: −0.21 | CXCL10, Log10 ratio of treated vs. non-treated systems [9]: −0.26 | IL-1α, Log10 ratio of treated vs. non-treated systems [9]: −0.11 | MMP-9, Log10 ratio of treated vs. non-treated systems [9]: −0.18 | PAI-1, Log10 ratio of treated vs. non-treated systems [9]: −0.27 | MCP-1, Log10 ratio of treated vs. non-treated systems [10]: −0.13 | IL-1α, Log10 ratio of treated vs. non-treated systems [6]: −0.10 | Collagen III, Log10 ratio of treated vs. non-treated systems [11]: −0.11 | Collagen IV, Log10 ratio of treated vs. non-treated systems [11]: 0.24 | VCAM-1, Log10 ratio of treated vs. non-treated systems [11]: −0.11

COc1cc(C(O)C(=O)O)ccc1O (stereo not shown) [vanillylmandelate (VMA), vanillylmandelate]
CXCL8, Log10 ratio of treated vs. non-treated systems [6]: −0.18

C[C@H](CCC(=O)O)[C@H]1CC[C@H]2[C@@H]3[C@H](O)C[C@@H]4C[C@H](O)CC[C@]4(C)[C@H]3C[C@H](O)[C@]12C [cholate]
MMP-1, Log10 ratio of treated vs. non-treated systems [2]: −0.10

O=C(O)CNC(=O)c1ccccc1 [hippurate]
MMP-1, Log10 ratio of treated vs. non-treated systems [2]: −0.11 | P-selectin, Log10 ratio of treated vs. non-treated systems [10]: −0.10 | Proliferation, Log10 ratio of treated vs. non-treated systems [4]: −0.10 | CD40, Log10 ratio of treated vs. non-treated systems [5]: −0.11 | CXCL8, Log10 ratio of treated vs. non-treated systems [6]: −0.12

O=c1[nH]c(=O)c2ncn([C@@H]3O[C@H](CO)[C@@H](O)[C@H]3O)c2[nH]1 [xanthosine]
Physical state and stability [12]: solid that is stable at room temperature | CD40, Log10 ratio of treated vs. non-treated systems [5]: −0.12 | Tissue factor, Log10 ratio of treated vs. non-treated systems [5]: −0.13 | CXCL8, Log10 ratio of treated vs. non-treated systems [6]: −0.13

Nc1ncnc2c1ncn2[C@@H]1O[C@H](CSCC[C@H](N)C(=O)O)[C@@H](O)[C@H]1O [S-adenosylhomocysteine (SAH), S-adenosylhomocysteine]
Proliferation, Log10 ratio of treated vs. non-treated systems ([1]; endothelial cell proliferation): −0.27 | CXCL8, Log10 ratio of treated vs. non-treated systems [2]: −0.13 | CXCL11, Log10 ratio of treated vs. non-treated systems [2]: −0.13 | HLA-DR, Log10 ratio of treated vs. non-treated systems [2]: −0.13 | MMP-9, Log10 ratio of treated vs. non-treated systems [2]: −0.24 | Proliferation, Log10 ratio of treated vs. non-treated systems [7]: −0.21 | sIgG, Log10 ratio of treated vs. non-treated systems [3]: −0.29 | CXCL10, Log10 ratio of treated vs. non-treated systems [13]: −0.19 | CXCL11, Log10 ratio of treated vs. non-treated systems [13]: −0.25 | Collagen III, Log10 ratio of treated vs. non-treated systems [13]: −0.21 | M-CSF, Log10 ratio of treated vs. non-treated systems [13]: −0.19 | MCP-1, Log10 ratio of treated vs. non-treated systems [13]: −0.14 | PAI-1, Log10 ratio of treated vs. non-treated systems [13]: −0.23 | Proliferation, Log10 ratio of treated vs. non-treated systems [13]: −1.10 | TIMP-1, Log10 ratio of treated vs. non-treated systems [13]: −0.14 | VCAM-1 (VCAM1), Log10 ratio of treated vs. non-treated systems [13]: −0.17 | MMP-9, Log10 ratio of treated vs. non-treated systems [9]: −0.10 | PAI-1, Log10 ratio of treated vs. non-treated systems [9]: −0.28 | Alpha-SM actin, Log10 ratio of treated vs. non-treated systems [11]: −0.18 | Collagen I, Log10 ratio of treated vs. non-treated systems [11]: −0.15 | Collagen III, Log10 ratio of treated vs. non-treated systems [11]: −0.27 | Collagen IV, Log10 ratio of treated vs. non-treated systems [11]: 0.31 | VCAM-1, Log10 ratio of treated vs. non-treated systems [11]: −0.12

N=C(N)NCCCC(=O)O [4-guanidinobutanoate]
CD38, Log10 ratio of treated vs. non-treated systems [7]: −0.10 | Proliferation, Log10 ratio of treated vs. non-treated systems [7]: −0.13 | IL-17A (sIL-17A), Log10 ratio of treated vs. non-treated systems [3]: −0.17 | TNF-α (sTNF-α), Log10 ratio of treated vs. non-treated systems [3]: −0.10 | sIgG, Log10 ratio of treated vs. non-treated systems [3]: −0.49 | CXCL10, Log10 ratio of treated vs. non-treated systems [13]: −0.11 | CXCL11, Log10 ratio of treated vs. non-treated systems [13]: −0.19 | Collagen III, Log10 ratio of treated vs. non-treated systems [13]: −0.23 | Proliferation, Log10 ratio of treated vs. non-treated systems [13]: −1.09 | TIMP-1, Log10 ratio of treated vs. non-treated systems [13]: −0.14 | VCAM-1 (VCAM1), Log10 ratio of treated vs. non-treated systems [13]: −0.19 | MCP-1, Log10 ratio of treated vs. non-treated systems [10]: −0.12 | Collagen IV, Log10 ratio of treated vs. non-treated systems [11]: 0.13

C[C@H](CCC(=O)O)[C@H]1CC[C@H]2[C@@H]3[C@H](O)C[C@@H]4C[C@H](O)CC[C@]4(C)[C@H]3CC[C@]12C [chenodeoxycholate]
CXCL8, Log10 ratio of treated vs. non-treated systems [7]: −0.10

CC(=O)N[C@H](C(=O)O)[C@@H](C)O [N-acetylthreonine]
sIgG, Log10 ratio of treated vs. non-treated systems [3]: −0.41 | VEGFR2, Log10 ratio of treated vs. non-treated systems [10]: −0.16
